Measured values taken from patent US20040005294A1, “IGFBP-3 in the diagnosis and treatment of cancer” (priority 2002, published 2004).

Assays:
[1] = tested on: 1799 cells; assay: MTT proliferation assay, 1799 cells; type: cell-based, human
Description: To measure the effects of deguelin on cell proliferation, NHBE, 1799, 1198, 1170-1, and HB56B cells were plated at concentrations of 2×10^3 to 4×10^3 cells/well in 96-well plates. The next day, cells were treated with either 0.1% DMSO as a diluent control or various concentrations of deguelin (final DMSO concentration=0.1%). At the end of the assay time period, cell proliferation was measured by the 3-(4,5-dimethylthiazol-2-yl)-2,5-diphenyltetrazolium bromide (MTT) assay as described (Lee et al., 2002). Six replicate wells were used for each analysis, and data from replicate wells are presented as means with 95% confidence intervals (CIs). For some experiments, the drug concentration required to inhibit cell growth by 50% (IC50) was determined by interpolation from dose-response curves. At least three independent experiments were performed.
To determine whether deguelin-induced antiproliferative effects on premalignant HBE cells were mediated through the inhibition of the PI3K/Akt pathway, 2×10^5 1799 cells/well or 1×10 ^6 squamous HBE cells/well in six-well plates were infected with 5×10 ^3 particles/cell of a control virus (Ad5CMV) or with 1×10^3 or 5×10^3 particles/cell of Ad5CMV-MyrAkt-HA, an adenoviral vector that expresses a constitutively active Akt. (MyrAkt) in KSFM. After 1 day of infection, cells were treated with 10^−7M or 10^−6M deguelin, 2×10^−6 M or 4×10^−6M N-(4-hydroxyphenyl)retinamide (4-HPR), or 0.1% DMSO as a control and then incubated for 1 or 2 days. Apoptosis was analyzed using the APO-BrdU staining kit for TUNEL, Western blot analyses for caspase-3, and the cleavage of PARP.

[2] = tested on: squamous HBE cells; assay: MTT proliferation assay, squamous HBE cells; type: cell-based, human; settings: 1 day

Q: With `COc1cc2c(cc1OC)[C@@H]1C(=O)c3ccc4c(c3O[C@@H]1CO2)C=CC(C)(C)O4` [deguelin, Deguelin] as the compound, how does the “reversibility of effects on cell growth” value ([1]; 10^−7 M for 1, 2 or 3 days, then 5 days without deguelin) read?
A: irreversible

Q: And the “decrease in cell growth” value ([1]; 10^−7 M, 1 day)?
A: 67.1%

Q: And the effect on growth ([1]; 1799 cells infected with Ad5CMV-MyrAkt-HA, 10^−6 M)?
A: did not decrease the growth

Q: And the “decrease in growth relative to untreated control” value ([1]; 1799 cells uninfected or infected with 5×10^3 particles/cell Ad5CMV, 10^−7 M, 2 days)?
A: 54%

Q: And the activity at 0.1 µM ([1]; Homo sapiens, read-out: growth as percent of control cell growth)?
A: 85%

Q: And the “proliferation of control squamous HBE cells” value ([2]; 10^−7 M or 10^−6 M)?
A: decreased proliferation of control squamous HBE cells in a dose-dependent manner

Q: And the “growth as percent of untreated cells” value ([2]; squamous HBE cells overexpressing constitutively active Akt, 10^−7 M to 10^−6 M)?
A: approximately 95%
